Laboratory results taken from ChEMBL document CHEMBL4507268 (2021).

Columns and labels:
Settings in all cases: Compound concentration 1000.0 nM
[1] = system: Tyrosine-protein kinase ABL1 (Homo sapiens), P00519 [E255K]
[2] = target: T1, Phosphatidylinositol 3-kinase C2 domain-containing subunit gamma (Homo sapiens) (UniProt O75747)
T1 sequence (whole entry): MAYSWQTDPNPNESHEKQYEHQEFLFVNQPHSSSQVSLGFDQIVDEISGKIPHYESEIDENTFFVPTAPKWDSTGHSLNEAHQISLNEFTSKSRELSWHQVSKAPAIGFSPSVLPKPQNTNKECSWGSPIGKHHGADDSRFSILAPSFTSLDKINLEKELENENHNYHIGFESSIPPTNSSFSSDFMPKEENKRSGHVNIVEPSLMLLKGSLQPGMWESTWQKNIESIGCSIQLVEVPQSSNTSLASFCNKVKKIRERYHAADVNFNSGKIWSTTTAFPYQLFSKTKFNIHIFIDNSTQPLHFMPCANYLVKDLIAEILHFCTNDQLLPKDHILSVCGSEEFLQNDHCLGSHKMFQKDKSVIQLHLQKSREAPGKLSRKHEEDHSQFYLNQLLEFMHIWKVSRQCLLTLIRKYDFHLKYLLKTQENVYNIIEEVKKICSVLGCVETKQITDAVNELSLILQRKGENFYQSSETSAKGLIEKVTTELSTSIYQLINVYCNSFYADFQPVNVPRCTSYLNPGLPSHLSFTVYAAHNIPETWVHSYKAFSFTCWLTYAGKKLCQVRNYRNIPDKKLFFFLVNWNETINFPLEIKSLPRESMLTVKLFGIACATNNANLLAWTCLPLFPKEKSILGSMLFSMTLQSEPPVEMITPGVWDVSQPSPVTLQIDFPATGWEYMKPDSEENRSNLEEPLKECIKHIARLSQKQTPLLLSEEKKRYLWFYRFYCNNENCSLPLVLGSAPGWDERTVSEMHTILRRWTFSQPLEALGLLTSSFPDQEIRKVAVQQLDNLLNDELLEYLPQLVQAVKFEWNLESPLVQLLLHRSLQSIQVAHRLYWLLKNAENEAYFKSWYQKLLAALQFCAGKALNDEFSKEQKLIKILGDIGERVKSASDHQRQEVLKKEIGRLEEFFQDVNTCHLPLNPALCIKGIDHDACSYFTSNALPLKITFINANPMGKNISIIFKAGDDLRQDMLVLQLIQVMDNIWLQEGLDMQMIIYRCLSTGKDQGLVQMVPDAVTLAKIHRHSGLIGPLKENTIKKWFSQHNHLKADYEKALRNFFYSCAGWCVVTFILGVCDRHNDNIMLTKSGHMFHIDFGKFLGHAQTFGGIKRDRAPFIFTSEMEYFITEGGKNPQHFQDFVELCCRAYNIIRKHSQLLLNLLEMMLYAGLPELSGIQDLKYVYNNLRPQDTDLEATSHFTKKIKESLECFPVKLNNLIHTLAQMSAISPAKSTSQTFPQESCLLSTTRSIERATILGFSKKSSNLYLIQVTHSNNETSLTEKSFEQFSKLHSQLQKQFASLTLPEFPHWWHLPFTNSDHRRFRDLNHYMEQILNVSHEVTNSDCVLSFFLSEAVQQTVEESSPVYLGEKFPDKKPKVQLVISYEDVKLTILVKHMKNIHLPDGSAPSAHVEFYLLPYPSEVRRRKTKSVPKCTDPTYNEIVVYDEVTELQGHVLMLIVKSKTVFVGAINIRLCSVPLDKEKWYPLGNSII

[3] = target: Tyrosine-protein kinase BTK (Homo sapiens) (UniProt Q06187)
[4] = target: Phosphatidylinositol 4-kinase beta (Homo sapiens) (UniProt Q9UBF8)
[5] = target: T2, Serine/threonine-protein kinase D3 (Homo sapiens) (UniProt O94806)
T2 sequence (whole entry): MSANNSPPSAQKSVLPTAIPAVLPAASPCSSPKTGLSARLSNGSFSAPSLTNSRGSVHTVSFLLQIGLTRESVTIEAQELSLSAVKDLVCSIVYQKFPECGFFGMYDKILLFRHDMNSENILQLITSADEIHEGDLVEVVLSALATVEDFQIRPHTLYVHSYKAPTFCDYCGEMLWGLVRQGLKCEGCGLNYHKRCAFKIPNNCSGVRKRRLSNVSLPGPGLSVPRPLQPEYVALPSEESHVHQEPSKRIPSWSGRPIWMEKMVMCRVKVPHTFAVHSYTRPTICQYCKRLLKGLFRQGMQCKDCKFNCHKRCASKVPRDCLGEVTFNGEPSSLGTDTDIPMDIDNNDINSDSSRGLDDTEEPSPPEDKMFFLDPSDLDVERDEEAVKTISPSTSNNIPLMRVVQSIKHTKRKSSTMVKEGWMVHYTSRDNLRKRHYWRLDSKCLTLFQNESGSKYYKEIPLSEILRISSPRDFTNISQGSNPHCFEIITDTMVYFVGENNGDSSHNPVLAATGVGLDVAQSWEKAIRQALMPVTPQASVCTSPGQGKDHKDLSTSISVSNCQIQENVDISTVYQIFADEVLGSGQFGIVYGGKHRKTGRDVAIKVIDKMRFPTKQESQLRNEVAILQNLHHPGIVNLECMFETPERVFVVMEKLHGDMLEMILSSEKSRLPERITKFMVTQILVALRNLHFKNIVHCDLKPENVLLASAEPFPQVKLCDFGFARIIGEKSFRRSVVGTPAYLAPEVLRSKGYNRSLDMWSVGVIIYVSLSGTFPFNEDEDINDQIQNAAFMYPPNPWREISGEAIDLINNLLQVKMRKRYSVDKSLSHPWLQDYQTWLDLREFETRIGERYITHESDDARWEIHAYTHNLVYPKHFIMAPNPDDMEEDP

[6] = target: Receptor-type tyrosine-protein kinase FLT3 (Homo sapiens) (UniProt P36888)
[7] = system: Epidermal growth factor receptor (Homo sapiens), P00533 [UNDEFINED MUTATION]

Measured: residual activity

Receptor-type tyrosine-protein kinase FLT3 (Homo sapiens), sequence (P36888 whole entry): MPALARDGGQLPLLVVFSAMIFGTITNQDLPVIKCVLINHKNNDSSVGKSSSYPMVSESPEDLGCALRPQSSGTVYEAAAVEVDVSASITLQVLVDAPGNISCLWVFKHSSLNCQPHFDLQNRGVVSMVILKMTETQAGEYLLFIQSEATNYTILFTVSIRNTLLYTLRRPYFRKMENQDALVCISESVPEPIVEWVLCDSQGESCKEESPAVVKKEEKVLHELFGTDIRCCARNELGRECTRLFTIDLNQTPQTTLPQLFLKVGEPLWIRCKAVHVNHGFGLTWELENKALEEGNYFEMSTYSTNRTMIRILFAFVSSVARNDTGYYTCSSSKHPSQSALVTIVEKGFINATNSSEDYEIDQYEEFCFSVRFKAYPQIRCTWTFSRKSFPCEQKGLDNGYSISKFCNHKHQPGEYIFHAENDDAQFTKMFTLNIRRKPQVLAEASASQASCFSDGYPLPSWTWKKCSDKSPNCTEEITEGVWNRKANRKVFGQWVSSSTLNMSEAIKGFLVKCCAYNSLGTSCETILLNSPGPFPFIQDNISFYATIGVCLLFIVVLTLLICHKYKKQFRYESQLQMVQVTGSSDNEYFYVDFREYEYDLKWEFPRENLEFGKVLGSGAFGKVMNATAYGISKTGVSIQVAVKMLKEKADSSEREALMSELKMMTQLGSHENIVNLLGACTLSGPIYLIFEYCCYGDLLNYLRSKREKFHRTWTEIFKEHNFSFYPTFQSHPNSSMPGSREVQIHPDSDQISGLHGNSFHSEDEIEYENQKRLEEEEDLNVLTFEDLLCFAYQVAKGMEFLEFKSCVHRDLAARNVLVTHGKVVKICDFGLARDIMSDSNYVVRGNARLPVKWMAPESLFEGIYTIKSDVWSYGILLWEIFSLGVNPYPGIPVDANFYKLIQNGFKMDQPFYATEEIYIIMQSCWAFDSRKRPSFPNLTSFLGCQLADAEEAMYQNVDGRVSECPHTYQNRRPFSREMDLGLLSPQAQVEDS
Phosphatidylinositol 4-kinase beta (Homo sapiens), sequence (Q9UBF8 2-816 limits assumed): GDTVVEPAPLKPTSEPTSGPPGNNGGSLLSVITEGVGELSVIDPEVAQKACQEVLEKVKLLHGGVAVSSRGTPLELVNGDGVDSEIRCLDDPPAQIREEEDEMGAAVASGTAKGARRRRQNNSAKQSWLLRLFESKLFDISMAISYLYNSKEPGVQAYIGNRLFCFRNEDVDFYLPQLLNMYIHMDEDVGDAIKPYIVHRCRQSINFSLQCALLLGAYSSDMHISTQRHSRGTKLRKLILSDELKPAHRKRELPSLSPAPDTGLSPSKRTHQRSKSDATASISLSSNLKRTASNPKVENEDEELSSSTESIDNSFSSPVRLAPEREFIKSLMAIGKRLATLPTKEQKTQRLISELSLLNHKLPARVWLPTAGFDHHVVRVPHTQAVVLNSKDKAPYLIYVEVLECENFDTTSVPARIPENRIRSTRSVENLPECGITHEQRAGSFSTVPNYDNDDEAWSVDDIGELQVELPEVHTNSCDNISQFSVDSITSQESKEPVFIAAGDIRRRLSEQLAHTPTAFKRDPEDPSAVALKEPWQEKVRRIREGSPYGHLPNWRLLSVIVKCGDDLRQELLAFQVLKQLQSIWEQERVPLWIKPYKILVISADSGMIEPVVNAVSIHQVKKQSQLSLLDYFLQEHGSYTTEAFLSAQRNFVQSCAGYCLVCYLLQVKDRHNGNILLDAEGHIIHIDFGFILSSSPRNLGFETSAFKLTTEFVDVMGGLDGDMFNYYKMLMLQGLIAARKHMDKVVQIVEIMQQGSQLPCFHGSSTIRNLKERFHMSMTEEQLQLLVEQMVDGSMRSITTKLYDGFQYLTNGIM
Epidermal growth factor receptor (Homo sapiens), P00533 [UNDEFINED MUTATION], sequence (P00533 whole entry, looked up, change not shown): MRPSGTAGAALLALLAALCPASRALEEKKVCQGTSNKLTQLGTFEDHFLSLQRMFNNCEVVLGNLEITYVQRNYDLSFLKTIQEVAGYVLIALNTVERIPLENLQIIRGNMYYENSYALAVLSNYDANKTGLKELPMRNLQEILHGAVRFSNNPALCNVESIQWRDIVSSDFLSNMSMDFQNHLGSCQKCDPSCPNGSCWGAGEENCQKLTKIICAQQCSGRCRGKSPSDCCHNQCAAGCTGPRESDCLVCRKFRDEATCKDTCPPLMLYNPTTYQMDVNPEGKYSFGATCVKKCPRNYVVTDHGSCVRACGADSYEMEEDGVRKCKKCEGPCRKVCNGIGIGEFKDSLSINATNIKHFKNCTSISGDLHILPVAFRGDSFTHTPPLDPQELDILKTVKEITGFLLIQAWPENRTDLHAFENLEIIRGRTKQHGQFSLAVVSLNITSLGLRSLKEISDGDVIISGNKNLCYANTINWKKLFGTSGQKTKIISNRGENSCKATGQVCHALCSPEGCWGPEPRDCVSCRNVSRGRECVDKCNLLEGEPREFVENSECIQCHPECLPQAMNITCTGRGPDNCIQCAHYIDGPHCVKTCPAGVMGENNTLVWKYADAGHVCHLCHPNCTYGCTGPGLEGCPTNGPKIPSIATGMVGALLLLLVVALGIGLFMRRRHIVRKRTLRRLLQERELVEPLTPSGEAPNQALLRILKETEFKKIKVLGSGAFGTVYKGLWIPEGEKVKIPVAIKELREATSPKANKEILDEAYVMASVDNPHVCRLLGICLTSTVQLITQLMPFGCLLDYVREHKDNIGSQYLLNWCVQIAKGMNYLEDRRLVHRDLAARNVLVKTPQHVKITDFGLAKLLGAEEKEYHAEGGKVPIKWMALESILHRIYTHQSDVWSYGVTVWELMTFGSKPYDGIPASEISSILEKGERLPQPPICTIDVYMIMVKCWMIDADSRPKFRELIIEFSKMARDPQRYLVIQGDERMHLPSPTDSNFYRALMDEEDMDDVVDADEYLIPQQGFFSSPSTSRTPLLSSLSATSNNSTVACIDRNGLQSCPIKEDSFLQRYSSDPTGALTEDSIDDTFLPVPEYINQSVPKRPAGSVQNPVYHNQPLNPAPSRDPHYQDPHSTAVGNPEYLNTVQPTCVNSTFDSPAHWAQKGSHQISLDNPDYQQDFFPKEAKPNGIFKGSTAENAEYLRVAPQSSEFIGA
Tyrosine-protein kinase BTK (Homo sapiens), sequence (Q06187 whole entry): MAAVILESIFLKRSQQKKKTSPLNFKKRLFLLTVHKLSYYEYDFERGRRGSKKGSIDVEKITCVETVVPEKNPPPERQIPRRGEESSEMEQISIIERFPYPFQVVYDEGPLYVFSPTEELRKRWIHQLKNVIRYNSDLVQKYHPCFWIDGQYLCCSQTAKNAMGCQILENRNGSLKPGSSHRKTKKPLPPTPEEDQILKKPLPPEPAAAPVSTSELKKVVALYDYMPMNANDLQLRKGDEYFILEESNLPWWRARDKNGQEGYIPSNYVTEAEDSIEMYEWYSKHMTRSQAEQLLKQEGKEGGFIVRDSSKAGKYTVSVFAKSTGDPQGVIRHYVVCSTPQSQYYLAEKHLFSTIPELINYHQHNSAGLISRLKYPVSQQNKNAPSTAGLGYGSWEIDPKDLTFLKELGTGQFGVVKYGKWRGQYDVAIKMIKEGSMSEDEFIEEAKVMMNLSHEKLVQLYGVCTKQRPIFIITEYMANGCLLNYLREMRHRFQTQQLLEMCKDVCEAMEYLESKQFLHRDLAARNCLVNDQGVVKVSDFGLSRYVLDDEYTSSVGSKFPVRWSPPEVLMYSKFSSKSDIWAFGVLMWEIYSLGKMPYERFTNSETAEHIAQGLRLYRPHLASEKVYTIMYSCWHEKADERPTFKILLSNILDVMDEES
Tyrosine-protein kinase ABL1 (Homo sapiens), P00519 [E255K], sequence (P00519 whole entry E255K, the tested form may be a part): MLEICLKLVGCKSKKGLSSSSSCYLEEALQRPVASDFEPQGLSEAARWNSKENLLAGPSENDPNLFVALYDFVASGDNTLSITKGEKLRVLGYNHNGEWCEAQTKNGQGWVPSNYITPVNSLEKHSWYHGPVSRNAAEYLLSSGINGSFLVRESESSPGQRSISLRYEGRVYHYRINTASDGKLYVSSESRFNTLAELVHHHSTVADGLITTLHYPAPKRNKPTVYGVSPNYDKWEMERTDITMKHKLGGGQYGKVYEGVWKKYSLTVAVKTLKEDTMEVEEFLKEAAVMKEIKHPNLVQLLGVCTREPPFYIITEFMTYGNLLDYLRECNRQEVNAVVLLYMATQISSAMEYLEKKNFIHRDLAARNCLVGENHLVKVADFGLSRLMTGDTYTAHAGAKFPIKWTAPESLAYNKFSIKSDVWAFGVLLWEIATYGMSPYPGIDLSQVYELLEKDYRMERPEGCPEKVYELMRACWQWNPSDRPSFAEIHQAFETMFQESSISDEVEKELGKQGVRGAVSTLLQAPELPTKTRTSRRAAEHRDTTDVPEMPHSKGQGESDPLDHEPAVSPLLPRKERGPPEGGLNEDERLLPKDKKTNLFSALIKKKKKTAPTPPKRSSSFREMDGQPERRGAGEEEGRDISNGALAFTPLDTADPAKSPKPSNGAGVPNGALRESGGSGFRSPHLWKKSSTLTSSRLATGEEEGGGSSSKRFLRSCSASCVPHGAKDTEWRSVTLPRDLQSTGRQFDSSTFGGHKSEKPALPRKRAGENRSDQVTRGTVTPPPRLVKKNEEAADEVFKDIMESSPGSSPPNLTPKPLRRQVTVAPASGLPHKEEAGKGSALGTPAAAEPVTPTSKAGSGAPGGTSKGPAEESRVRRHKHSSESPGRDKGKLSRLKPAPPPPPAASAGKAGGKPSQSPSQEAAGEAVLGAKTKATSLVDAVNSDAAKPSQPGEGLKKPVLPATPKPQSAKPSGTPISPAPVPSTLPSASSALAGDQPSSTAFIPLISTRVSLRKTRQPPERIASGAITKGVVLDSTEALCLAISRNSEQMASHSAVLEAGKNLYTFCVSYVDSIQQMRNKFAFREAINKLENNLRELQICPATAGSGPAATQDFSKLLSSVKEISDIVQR

CN1CCN(c2cnc3c(C4CCN(C(=O)c5ccc(OC(F)(F)F)cc5N)CC4)ncnc3c2)CC1 [BAY-885]
inactive: [1] 98% | [2] 100% | [3] 100% | [4] 96% | [5] 100% | [6] 100% | [7] 83%

Cc1nc(C2CCN(C(=O)c3ccc(OC(F)(F)F)cc3N)CC2)c2ncc(N3CCN(C)CC3)cc2n1 [BAY-693]
inactive: [1] 100% | [2] 100% | [3] 87% | [4] 84% | [5] 100% | [6] 83% | [7] 70%
